# How the values were obtained:
# [1] = Stability experiments using liver microsomes (human); type: in vitro ADME; settings: 37° C., 1 h, NADPH regenerating system, radio-UPLC
# From the text: General: Reagents and solvents were purchased from Sigma-Aldrich Chemie GmbH, Acros Organics or VWR International AG if nothing else is mentioned. All chemicals were used as supplied. Human and mouse (female CD-1) microsomes and the NADPH regenerating systems were purchased from BD biosciences.
# (§1) Radio-UPLC: For stability studies, an ultra-performance liquid chromatography (UPLC™, Waters) system, equipped with an Acquity UPLC BEH C18 column (1.7 μm, 2.1×50 mm, Waters) and a coincidence detector (FlowStar LB513, Berthold) was used with following solvent system: eluent A was a NaH2PO4/Na2HPO4 buffer (0.05 M, pH 7.4) and eluent B was acetonitrile. A gradient from 0-4.0 min 100%-40% A, at a flow rate of 0.6 ml/min was used.
# To a mixture of KH2PO4/K2HPO4 buffer (pH 7.4, 0.5 M, 200 μl), NADPH regenerating system A (50 μl), NADPH regenerating system B (10 μl), an aliquot of [^18F]-3′-aza-2′-fluorofolic acid (38 μl, approx. 15 MBq) was added and filled up with water (677 μl) to a volume of 975 μl and preincubated at 37° C. Then, mouse or human liver microsomes (20 mg/ml, 25 μl) were added and incubated at 37° C. After several time points (0, 20, 40 and 60 min) aliquots (100 μl) were drawn and the enzymatical reaction was stopped by purring the solution into ice-cold methanol (200 μl). […] Every time point was performed as a triplicate and analyzed on a radio-UPLC system. […]
# [2] = Stability experiments using glutathione / S9-fraction; type: in vitro ADME, human; settings: 37° C., 1 h, radio-UPLC
# Description: as §1
# Glutathione (0.1 M, 100 μl), S9-fraction (20 mg/ml, 50 μl) and KH2PO4/K2HPO4 buffer (pH 7.4, 0.5 M, 200 μl) were diluted with water (612 μl) to a volume of […] and [^18F]-3′-aza-2′-fluorofolic acid (38 μl, approx. 15 MBq) was added. The mixture was incubated at 37° C. At several time points aliquots (100 μl) were drawn and the reaction was stopped by pouring the sample into ice-cold methanol (200 μl). Each sample was diluted with NaH2PO4/Na2HPO4 buffer (pH 7.4, 0.05 M, 600 μl). Every time point was performed as duplicates and analyzed on a radio-UPLC system.
# KB tumor xenografts = assay: PET imaging studies in KB tumor-bearing mice; type: in vivo
# Description: PET experiments were performed with an eXplore VISTA PET/CT tomograph (GE). Tumor bearing mice were injected with 10-18 MBq of 3′-aza-2′-[^18F]fluorofolic acid (100-150 μl per injection) via lateral tail vein. […] Animals were anesthetized with isoflurane in an air/oxygen mixture. The PET scans were acquired from 120-150 min p.i. After acquisition, PET data were reconstructed in user-defined time frames. The fused datasets of PET and CT were analyzed with PMOD (version 3.2) software.
# Dynamic PET scans of mice 1.5-90 min p.i. of 3′-aza-2′-[^18F]fluorofolic acid and at 60-150 min p.i. were performed. Static PET scans of [^18F]-2′3′-aza-folic acid were typically performed with a scan time from 120-150 min p.i. […] The uptake in other non-target organs was negligible, the only exceptions being the liver, kidneys and salivary glands.
# KB cells = assay: In vitro cell uptake and internalization studies; type: cell-based, human; settings: two hours of incubation, 37° C.
# Description: Cell Culture: KB cells (human cervical carcinoma cell line, HeLa subclone; ACC-136) were purchased from the German Collection of Microorganisms and Cell Cultures (DSMZ, Braunschweig, Germany). The cells were cultured as monolayers at 37° C. in a humidified atmosphere containing 5% CO2. […] FFRPMI medium was supplemented with 10% heat-inactivated fetal calf serum (FCS, as the only source of folate), L-glutamine and antibiotics (penicillin/streptomycin/fungizone). Routine culture treatment was performed twice a week with EDTA (2.5 mmol/l) in PBS.
# KB cells were seeded in 12-well plates to grow over night (˜700,000 cells in 2 ml FFRPMI medium/well). [^18F]-3′-aza-2′-fluorofolic acid ([…], 170 kBq) was added to each well. […] After incubation for 1 h or 2 h at 37° C. the cells were washed three times with PBS to determine total cell uptake of 3′-aza-2′-[^18F]fluorofolic acid. […] The cell suspensions were transferred to 4 ml tubes and the samples were counted in a −counter. After homogenization by vortex, the concentration of proteins was determined for each sample by a Micro BCA Protein Assay kit in order to standardize measured radioactivity to the average content of 0.3 mg protein in a single well. […]
# Human plasma stability = type: in vitro ADME; settings: 37° C., 4 h, radio-UPLC
# Description: as §1
# The radiotracer was tested with regard to its stability in human blood plasma over a period of 4 hours at 37° C. The formulated product (200 μL) was diluted with sodium phosphate buffer (100 μl) and an aliquot (60 μl, 15 MBq) was added to human plasma (500 μL), pre-incubated at 37° C. The mixture was shaken on a Thermomixer compact (Eppendorf) at 37° C. and 500 rpm. After several time points (0, 30, 60, 120, 150 and 240 min) aliquots were taken after tracer addition. Each aliquot (70 μl) was added to ice-cold MeOH (150 μl) to precipitate the proteins. To separate the supernatant from the precipitate, the suspension was centrifuged for 10 min at 13400 rpm (Eppendorf MiniSpin) at room temperature. The supernatant was passed through a microfilter (Sartorius Stedim Biotech GmbH, Minisart RC 25, 0.45 μm) and was analyzed on the radio-UPLC system.
# [3] = PET, pemetrexed 400 μg 60 min prior to the radiotracer
smiles,measurement,setting,value
Nc1nc2ncc(CNc3ccc(C(=O)N[C@@H](CCC(=O)O)C(=O)O)c([18F])n3)nc2c(=O)[nH]1 [3′-aza-2′-[^18F]fluorofolic acid],Stability in human liver microsomes,[1],completely stable
same,Stability with glutathione and S9-fraction,[2],completely stable
same,Uptake in the tumor tissue and in the kidneys with coinjected folic acid,"KB tumor xenografts; PET 120-150 min p.i., excess folic acid 100 μg",reduced uptake
same,Accumulation in the liver after preinjection of pemetrexed,KB tumor xenografts; [3],very strong reduction
same,Kidney uptake after preinjection of pemetrexed,KB tumor xenografts; [3],reduced kidney uptake
same,Tumor uptake after preinjection of pemetrexed,KB tumor xenografts; [3],high tumor uptake
same,Specific uptake in KB tumor xenografts,KB tumor xenografts; quoted with static baseline PET scan 120-150 min p.i.,12.6±1.8 % ID/g
same,"Uptake in other non-target organs (except liver, kidneys and salivary glands)",KB tumor xenografts; static baseline PET scan 120-150 min p.i.,negligible
same,Total cell uptake,KB cells,about 78.17%
same,Internalized fraction,KB cells; stripping buffer pH 3,18.56%
same,Stability in human blood plasma,Human plasma stability,completely stable

# — patent US10357576B2, “18F-labelled folate/antifolate analogues” (MERCK & CIE, priority 2012, dated 2019)
